Activity calls are given as the source filed them.
Tests used:
Beta-galactosidase [1] = target: T1, Beta-galactosidase (Escherichia coli, UniProt Q8VNN2); assay: PubChem AID 485352; format: functional
[2] = target: Type-1 angiotensin II receptor (Homo sapiens, UniProt P30556); assay: antagonism of angiotensin II type 1 receptor – cell-based, uHTS hits, selectivity assay for APJ receptor antagonist project, dose response (AID 463214); format: functional;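 further: antagonist potency against angiotensin II stimulated AT1 response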
Type-1 angiotensin II receptor, sequence (P30556 whole entry): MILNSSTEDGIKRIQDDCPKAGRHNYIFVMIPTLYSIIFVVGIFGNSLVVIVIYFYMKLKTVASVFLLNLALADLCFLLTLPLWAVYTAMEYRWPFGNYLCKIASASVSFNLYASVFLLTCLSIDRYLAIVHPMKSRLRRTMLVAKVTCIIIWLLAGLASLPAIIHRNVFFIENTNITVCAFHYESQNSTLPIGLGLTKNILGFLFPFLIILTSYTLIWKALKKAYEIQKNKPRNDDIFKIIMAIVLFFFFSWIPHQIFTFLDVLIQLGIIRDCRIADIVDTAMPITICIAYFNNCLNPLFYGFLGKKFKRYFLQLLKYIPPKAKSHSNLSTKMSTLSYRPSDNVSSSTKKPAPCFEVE

[3] = target: Lysine-specific demethylase 4C (Homo sapiens, UniProt Q9H3R0); assay: inhibition of JMJD2C H3K9me3 demethylation – biochemical, DELFIA europium, cherry-picked samples, dose response (AID 488835); format: functional
Lysine-specific demethylase 4C, sequence (Q9H3R0 whole entry): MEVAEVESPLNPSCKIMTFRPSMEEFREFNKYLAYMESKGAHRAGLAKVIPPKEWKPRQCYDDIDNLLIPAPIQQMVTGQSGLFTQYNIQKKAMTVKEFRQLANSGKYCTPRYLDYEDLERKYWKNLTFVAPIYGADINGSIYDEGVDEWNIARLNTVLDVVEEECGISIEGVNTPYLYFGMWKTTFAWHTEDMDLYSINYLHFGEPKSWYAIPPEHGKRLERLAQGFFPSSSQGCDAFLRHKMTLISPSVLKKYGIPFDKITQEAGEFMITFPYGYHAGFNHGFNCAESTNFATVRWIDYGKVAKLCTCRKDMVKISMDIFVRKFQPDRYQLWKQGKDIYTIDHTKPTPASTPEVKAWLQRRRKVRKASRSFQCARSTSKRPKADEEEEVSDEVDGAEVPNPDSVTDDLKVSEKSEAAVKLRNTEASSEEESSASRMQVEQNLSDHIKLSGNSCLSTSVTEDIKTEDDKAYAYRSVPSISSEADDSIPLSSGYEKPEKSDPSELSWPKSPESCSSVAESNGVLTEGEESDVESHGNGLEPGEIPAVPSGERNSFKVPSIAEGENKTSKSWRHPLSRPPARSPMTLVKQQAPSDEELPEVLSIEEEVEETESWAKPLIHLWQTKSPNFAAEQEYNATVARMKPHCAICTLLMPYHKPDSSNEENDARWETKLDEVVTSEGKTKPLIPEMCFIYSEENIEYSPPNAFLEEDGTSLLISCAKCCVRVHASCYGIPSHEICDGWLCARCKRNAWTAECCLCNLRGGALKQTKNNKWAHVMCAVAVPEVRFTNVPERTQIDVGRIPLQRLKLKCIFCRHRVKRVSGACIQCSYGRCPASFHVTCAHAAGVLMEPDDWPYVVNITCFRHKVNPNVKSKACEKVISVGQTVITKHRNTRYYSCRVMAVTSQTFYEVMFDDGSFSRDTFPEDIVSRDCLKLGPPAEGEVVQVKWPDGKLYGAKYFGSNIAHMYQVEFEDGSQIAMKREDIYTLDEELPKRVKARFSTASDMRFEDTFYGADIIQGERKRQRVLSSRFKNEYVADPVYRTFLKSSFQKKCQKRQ

[4] = Luminescence Cell-Based Dose Response HTS to Identify Activators of Luciferase Translation or Activity in H4 […] Cells. [Related pubchem assays: 1829 (Project Summary), 1814 (Primary HTS)]; format: functional
H4 = assay: Luminescence Cell-Based Dose Response HTS to Identify Activators of 5'UTR Stem-Loop Driven Prion Protein mRNA Translation in H4 Neuroglioblastoma Cells. [Related pubchem assays: 1829 (Project Summary), 1814 (Primary HTS)]; format: functional; settings: Homo sapiens
Troponin, cardiac muscle = Troponin, cardiac muscle (Homo sapiens, UniProt P19429+P45379+P63316); assay: Fluorescence-based biochemical high throughput dose response assay for activators of the calcium sensitivity of cardiac Regulated Thin Filaments (RTF). [Related pubchem assays (depositor defined):AID493008, AID493018, AID504382, AID504383]; format: protein-complex assay
Hexokinase-1 = target: T2, Hexokinase-1 (Homo sapiens, UniProt P19367); assay: hexokinase 1 activity inhibitors, potency – biochemical, set 2, resazurin fluorescence coupled readout, selectivity assay for HKDC1 inhibitor project, SAR follow-up (AID 588356); format: functional
T2 sequence (P19367 whole entry): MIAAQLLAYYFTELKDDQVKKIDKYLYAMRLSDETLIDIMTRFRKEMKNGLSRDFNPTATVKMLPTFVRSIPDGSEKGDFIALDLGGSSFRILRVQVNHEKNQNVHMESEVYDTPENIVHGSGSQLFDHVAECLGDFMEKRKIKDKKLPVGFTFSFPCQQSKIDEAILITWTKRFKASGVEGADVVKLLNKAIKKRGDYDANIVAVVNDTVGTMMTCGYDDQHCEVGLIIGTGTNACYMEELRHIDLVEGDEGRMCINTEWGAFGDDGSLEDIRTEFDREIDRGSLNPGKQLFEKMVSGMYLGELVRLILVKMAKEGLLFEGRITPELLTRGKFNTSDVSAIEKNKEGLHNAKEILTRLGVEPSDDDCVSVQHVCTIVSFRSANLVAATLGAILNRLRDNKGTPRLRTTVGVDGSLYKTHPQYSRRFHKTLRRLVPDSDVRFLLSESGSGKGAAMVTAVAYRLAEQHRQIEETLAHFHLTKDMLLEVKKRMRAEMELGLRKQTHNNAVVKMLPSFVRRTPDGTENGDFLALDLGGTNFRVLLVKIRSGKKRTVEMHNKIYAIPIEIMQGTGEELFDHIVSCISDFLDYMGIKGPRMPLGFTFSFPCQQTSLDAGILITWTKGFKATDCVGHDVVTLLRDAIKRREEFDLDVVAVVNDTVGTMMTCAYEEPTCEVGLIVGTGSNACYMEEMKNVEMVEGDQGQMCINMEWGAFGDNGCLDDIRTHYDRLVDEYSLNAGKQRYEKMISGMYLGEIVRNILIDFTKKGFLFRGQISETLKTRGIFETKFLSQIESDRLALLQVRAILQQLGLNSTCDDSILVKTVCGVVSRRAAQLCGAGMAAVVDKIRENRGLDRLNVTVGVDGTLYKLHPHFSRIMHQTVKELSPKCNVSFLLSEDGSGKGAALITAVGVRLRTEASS

Hexokinase HKDC1 = target: T3, Hexokinase HKDC1 (Homo sapiens, UniProt Q2TB90); assay: analog inhibition of human HKDC1 activity – biochemical, set 2, SAR follow-up (AID 588355); format: functional
T3 sequence (Q2TB90 whole entry): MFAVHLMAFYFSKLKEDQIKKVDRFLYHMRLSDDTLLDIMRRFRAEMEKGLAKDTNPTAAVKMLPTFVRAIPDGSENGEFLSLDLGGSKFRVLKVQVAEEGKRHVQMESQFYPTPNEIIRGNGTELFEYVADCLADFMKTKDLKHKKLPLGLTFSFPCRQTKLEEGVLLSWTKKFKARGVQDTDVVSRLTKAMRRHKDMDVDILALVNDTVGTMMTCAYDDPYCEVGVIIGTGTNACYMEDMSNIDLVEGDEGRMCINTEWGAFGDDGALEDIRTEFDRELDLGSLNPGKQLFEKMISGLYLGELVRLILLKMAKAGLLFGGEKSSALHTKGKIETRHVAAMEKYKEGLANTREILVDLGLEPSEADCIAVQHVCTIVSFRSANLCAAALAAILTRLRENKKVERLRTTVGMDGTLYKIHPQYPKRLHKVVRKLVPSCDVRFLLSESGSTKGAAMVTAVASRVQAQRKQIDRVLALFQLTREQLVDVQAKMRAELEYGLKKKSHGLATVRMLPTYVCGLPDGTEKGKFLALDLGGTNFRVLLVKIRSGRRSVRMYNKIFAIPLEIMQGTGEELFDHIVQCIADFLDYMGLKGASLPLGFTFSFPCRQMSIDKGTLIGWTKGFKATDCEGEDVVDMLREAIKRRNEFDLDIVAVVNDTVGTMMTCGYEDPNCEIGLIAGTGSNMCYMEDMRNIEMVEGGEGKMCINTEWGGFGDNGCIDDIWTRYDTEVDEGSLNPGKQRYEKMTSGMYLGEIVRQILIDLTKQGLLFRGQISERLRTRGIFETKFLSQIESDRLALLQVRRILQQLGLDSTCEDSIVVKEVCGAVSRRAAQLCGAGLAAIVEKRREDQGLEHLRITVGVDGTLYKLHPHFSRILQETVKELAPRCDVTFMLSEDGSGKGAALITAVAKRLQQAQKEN

[5] = target: T4, Delta-type opioid receptor (Homo sapiens, UniProt P41143); assay: HTS Image-Based Screen for Antagonists of the DOR Receptor. [Related pubchem assays (depositor defined):AID1777, AID1785, AID1786, AID2133]; format: functional
T4 sequence (P41143 whole entry): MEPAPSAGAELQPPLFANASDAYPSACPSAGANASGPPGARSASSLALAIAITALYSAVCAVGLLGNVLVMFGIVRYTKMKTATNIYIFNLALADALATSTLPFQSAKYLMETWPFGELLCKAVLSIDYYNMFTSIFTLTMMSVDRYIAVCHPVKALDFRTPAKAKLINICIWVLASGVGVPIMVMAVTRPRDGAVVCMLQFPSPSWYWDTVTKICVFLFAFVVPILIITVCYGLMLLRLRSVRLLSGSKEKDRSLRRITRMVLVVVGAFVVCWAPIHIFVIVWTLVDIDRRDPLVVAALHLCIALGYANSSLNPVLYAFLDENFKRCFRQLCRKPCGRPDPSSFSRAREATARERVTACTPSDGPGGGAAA

Mu-type opioid receptor = Mu-type opioid receptor (Homo sapiens, UniProt P35372); assay: HTS Image-Based Screen for Agonists of the MOR Receptor. [Related pubchem assays (depositor defined):AID1777, AID1785, AID1786, AID2133]; format: functional;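 further: imaging of beta-arrestin GFP recruitment into spots after receptor activation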
Mu-type opioid receptor, sequence (P35372 whole entry): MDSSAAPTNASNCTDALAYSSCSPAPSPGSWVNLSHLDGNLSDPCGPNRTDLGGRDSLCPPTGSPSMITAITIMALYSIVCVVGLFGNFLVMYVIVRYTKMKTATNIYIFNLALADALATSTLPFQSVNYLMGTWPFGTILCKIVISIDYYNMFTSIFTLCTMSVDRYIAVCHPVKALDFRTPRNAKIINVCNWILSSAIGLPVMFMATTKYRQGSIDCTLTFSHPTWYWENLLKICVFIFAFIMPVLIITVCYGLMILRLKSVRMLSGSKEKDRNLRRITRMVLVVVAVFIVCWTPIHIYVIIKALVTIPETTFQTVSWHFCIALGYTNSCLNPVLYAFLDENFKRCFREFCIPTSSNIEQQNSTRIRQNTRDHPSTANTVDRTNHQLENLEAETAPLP

[6] = tested on: Streptococcus sp. 'group A'; assay: Streptococcus pyogenes SK(-)GAS viability under kanamycin – luminescence, BacTiterGlo, confirmation, counter-screen for streptokinase expression inhibitor project, dose response (AID 1900); format: functional, organism-based
[7] = target: T4, Delta-type opioid receptor; assay: HTS Image-Based Screen for Agonists of the DOR Receptor. [Related pubchem assays (depositor defined):AID1777, AID1786, AID2133]; format: functional
[8] = target: T5, Kappa-type opioid receptor (Homo sapiens, UniProt P41145); format: functional
T5 sequence (P41145 whole entry): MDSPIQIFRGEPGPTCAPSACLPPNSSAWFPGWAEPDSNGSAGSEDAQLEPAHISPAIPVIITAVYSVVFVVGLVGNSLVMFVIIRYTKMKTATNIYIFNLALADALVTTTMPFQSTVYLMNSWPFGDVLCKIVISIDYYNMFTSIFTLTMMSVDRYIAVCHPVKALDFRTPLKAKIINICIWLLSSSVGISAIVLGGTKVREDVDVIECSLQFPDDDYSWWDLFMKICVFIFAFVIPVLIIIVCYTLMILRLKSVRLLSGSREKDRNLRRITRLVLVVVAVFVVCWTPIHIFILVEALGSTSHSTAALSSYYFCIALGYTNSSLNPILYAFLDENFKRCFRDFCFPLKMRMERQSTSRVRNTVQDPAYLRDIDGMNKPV

Beta-galactosidase [9] = target: T1, Beta-galactosidase; format: functional
[10] = target: T5, Kappa-type opioid receptor; format: functional; remark: listed apart in the source
Streptococcus = assay: GAS UMAA2166 growth inhibition – luminescence, BacTiterGlo, counter-screen for streptokinase expression inhibitor project, dose response (AID 1915); format: functional, organism-based;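 further: potency for reduction of bacterial viability or growth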
Beta-galactosidase [11] = target: T1, Beta-galactosidase; assay: detection-enzyme interference by beta-gal modulators – biochemical, E. coli enzyme, set 3, artefact control for CCR6 antagonist project, dose response (AID 504712); format: functional

T1 sequence (Q8VNN2 whole entry): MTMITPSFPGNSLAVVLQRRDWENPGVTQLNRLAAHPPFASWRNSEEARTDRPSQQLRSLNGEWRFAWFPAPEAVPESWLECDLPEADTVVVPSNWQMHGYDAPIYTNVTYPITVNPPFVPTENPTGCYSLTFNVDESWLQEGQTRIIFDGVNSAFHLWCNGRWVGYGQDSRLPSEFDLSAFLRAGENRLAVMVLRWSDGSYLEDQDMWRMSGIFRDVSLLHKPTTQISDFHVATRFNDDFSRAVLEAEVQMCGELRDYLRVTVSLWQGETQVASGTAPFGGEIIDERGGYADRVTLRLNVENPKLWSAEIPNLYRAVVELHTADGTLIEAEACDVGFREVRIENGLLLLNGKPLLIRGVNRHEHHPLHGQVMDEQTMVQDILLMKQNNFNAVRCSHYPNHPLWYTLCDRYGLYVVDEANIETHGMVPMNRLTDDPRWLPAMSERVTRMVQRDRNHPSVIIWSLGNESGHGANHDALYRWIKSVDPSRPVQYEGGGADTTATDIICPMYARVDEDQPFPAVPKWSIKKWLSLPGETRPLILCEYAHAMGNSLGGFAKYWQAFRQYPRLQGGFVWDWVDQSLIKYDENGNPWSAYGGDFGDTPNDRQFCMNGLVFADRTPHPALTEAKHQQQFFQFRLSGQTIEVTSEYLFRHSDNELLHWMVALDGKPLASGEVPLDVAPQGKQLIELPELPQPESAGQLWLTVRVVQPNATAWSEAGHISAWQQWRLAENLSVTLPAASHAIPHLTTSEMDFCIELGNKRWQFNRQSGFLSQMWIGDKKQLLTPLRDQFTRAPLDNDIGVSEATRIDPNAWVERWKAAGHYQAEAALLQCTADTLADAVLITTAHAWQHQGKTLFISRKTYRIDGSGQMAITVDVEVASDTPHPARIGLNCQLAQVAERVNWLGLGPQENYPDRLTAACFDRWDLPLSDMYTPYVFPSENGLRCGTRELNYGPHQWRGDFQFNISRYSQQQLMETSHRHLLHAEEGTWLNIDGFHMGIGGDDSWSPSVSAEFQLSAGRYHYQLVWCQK

O=C(O)c1cccc(NC(=S)NC(=O)c2cncc(Br)c2)c1
EC50 (Beta-galactosidase [1]): > 40 µM (inactive)
IC50 [2]: > 40 µM (not active)

O=C(NCCCNCCCNC(=O)c1ccc(/C=N/O)nc1)c1ccc(/C=N/O)nc1
AC50 [3]: 18 µM (active)

CC(/C=N/Nc1ccc2nncn2n1)=C\c1ccccc1
EC50 [4]: 20.7 µM (active)
EC50 (H4): > 120 µM (not active)
EC50 (Troponin, cardiac muscle): > 71.5 µM (inactive)

COc1cc2c(cc1OC)-c1cc(Nc3cccc4ccccc34)nc(=O)n1CC2
IC50 (Hexokinase-1): > 80 µM (inactive)
IC50 (Hexokinase HKDC1): > 80 µM (inactive)

COc1cccc(N2CC(C)Cn3c2nc2c3c(=O)n(CCN3CCOCC3)c(=O)n2C)c1 (stereo unspecified)
EC50 (Beta-galactosidase [1]): > 40 µM (inactive)
IC50 [2]: > 40 µM (not active)

O=c1c2ccc(F)cc2nc(/C=C/c2cccnc2)n1Cc1ccccc1
IC50 (Hexokinase-1): > 80 µM (inactive)
IC50 (Hexokinase HKDC1): > 80 µM (inactive)

O=C(NC(=S)N1CCN(c2ccc(Cl)cc2[N+](=O)[O-])CC1)c1cccs1
IC50 [5]: > 32 µM (inactive)
EC50 (Mu-type opioid receptor): > 32 µM (inactive)
EC50 [6]: 2.08 µM (active)
EC50 [7]: > 32 µM (inactive)
IC50 [8]: 12.3 µM (active)
EC50 (Beta-galactosidase [9]): > 31.5 µM (inactive)
IC50 [10]: > 32 µM
EC50 (Streptococcus): 4.3 µM (active)
IC50 (Beta-galactosidase [11]): > 66.6 µM (inactive)

Reference: ChEMBL document CHEMBL1201862, “PubChem BioAssay data set” (2004)
